# Experimental data published in patent US20230364277A1, “E-SELECTIN TARGETING AGENTS” (GLYCOMIMETICS, INC., priority 2020, published 2023).
# Tested on: E-selectin expression on HUVEC
# Assay: Induction of E-selectin expression on HUVEC by TNFα (flow cytometry, anti-E-selectin antibody)
# Format: cell-based, human
# Conditions: with TNFα stimulation
# Protocol: Subsequent studies were performed to investigate the ability of liposomes containing Compound 3 to recognize and bind to cells under conditions where E-selectin is expressed. For these liposomes with and without Compound 3 were prepared with a fluorescent phospholipid membrane marker (Composition 4 and Composition 3, respectively) allowing for detection by flow cytometry. Liposomes were incubated for 60 min at 37° C. with cultures of human umbilical vein endothelial cells (HUVEC) pretreated in media deficient in TNFα or supplemented with TNFα to induce E-selectin expression. Association of fluorescein labeled liposomes with cell preparations by flow cytometry was then determined.
# The flow cytometry-based assay used liposomes containing 0% or 5% Compound 3 (L4 and L5, respectively). Initial studies defined that only TNFα-stimulated HUVEC but not unstimulated HUVEC express E-selectin.
substance,measurement,value
TNFα,HUVEC express E-selectin,88.696%
